For data set [1] the following is noted: cited from earlier work.
The nature of data set [2]: Differential scanning calorimetry of the new carbamazepine polymorph. Particulars: scan rate of 10° C./minute. It is filed as physicochemical.
Data set [3] can be described thus: Infrared of single crystals versus KBr pellets (phase transformation under pressure). It is filed as physicochemical. The settings on record: KBr pellets produced at 10,000 psi vs infrared microscopy of single crystals. The text has this:
The corresponding peaks in the new polymorph are found at 3474, 3149, 1674, 1394, 773, and 765 cm^−1. […] Significant differences in the IR spectra of two different polymorphs provide a fast, reliable method of polymorph characterization despite the fact that a hydrogen-bonded dimer is observed in the crystal structure of both polymorphs. […] Therefore, it is contemplated that this new form has good shelf life (kinetic trapping of the unstable form).

For data set [4] the following is noted: room temperature; cited from earlier work.
For data set [5] the following is noted: following a single oral dose, average; cited from earlier work.
The conditions of data set [6]: rat, in vivo; cited from earlier work.

Each structure is given as a SMILES string.

For the compound `CC(=O)Nc1ccc(O)cc1` [orthorhombic polymorph, 4-acetamidophenol], the “solubility relative to the monoclinic form” value in data set [1] is listed as “more soluble”.
As to `NC(=O)N1c2ccccc2C=Cc2ccccc21` [new polymorph, carbamazepine], the “phase transitions by differential scanning calorimetry” value in data set [2] is “absence of phase transitions below 184 °C”. In addition, the “phase transformation under pressure” value in data set [3] is recorded as “not taking place”.
Turning to `NC(=O)N1c2ccccc2C=Cc2ccccc21` [trigonal form, carbamazepine], in data set [4], the “solid form stability in solvent” value is listed as “undergoes solvent-mediated conversion to the monoclinic crystal”.
Consider `NC(=O)N1c2ccccc2C=Cc2ccccc21` [carbamazepine], for which the “elimination half-life of unchanged carbamazepine in the plasma” value in data set [5] is “approximately 36 hours”. Further, the long-term toxicity finding entry in data set [6] was “potential carcinogenic risk”.
